US10285959B2, “Combination therapies using HDAC inhibitors” (priority 2005, dated 2019)

Columns and labels:
[1] = test system: HCT116 colon cancer xenograft; experiment: HCT116 colon cancer subcutaneous xenograft model; type: in vivo, nu/nu mice
Description: The 5-FU dose was set at 15 mg/kg.
HCT116 colon cancer xenograph. Daily i.p. treatments with PXD101 (morning) and 5-FU (afternoon). Mean/SEM, n=10(9).

[2] = test system: P388 i.p. mouse leukemia tumour; experiment: P388 mouse leukemia model, survival;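 note: female B6D1F1 mice implanted i.p. with P388 leukemia cells, Kaplan-Meier survival analysis, ILS% equals treated minus vehicle control median survival, divided by control median, times 100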
Description: P388 mouse leukemia cells were injected intrapertoneally (IP) into B6D1F1 female mice. […] Kaplan-Meier survival distribution graphs are shown for each combination.
The percentage Increased Life Span (ILS%) was calculated as the median survival (treatment group) minus median survival (vehicle control) divided by median survival (vehicle control) multiplied with 100:

[3] = test system: EGFR protein in A431 cells; experiment: Western blot of EGFR protein levels; type: cell-based, human; settings: 24 hours treatment
Text: The blot was reprobed with an anti-actin antibody to control for lane loading.

diverse tumor cell lines = experiment: Proliferation of tumor cell lines; type: cell-based
Calu-3 = experiment: Growth inhibition/proliferation, PXD101 with Tarceva (CellTiter-Glo); type: cell-based, human; settings: wtEGFR
HCC-4006 = experiment: Growth inhibition/proliferation, PXD101 with Tarceva; type: cell-based; settings: mutant EGFR
[4] = 5-FU(30) mg/kg/treat i.p. daily for 5 days starting day 3
[5] = PXD101(60) mg/kg/treat i.p. daily for 5 days starting day 3
[6] = PXD101(100) mg/kg/treat i.p. daily for 5 days starting day 3

## O=c1[nH]cc(F)c(=O)[nH]1 [5-FU, 5-fluorouracil]
[1]; 5-FU 15 mg/kg
  tumour growth inhibition: ineffective
[2]; [4]
  ILS % (Increased Life Span): 60.0%
  Survival time, Max: 18
  Survival time, Median survival: 16
  Survival time, Min: 15
[2]; day 9, 5-FU (30)
  Cumulative Survival: 1
[2]; day 9, 5-FU (50)
  Cumulative Survival: 1.00
[2]; day 10, 5-FU (30)
  Cumulative Survival: 1
[2]; day 10, 5-FU (50)
  Cumulative Survival: 0.55
[2]; day 11, 5-FU (30)
  Cumulative Survival: 1
[2]; day 11, 5-FU (50)
  Cumulative Survival: 0.15
[2]; day 12, 5-FU (30)
  Cumulative Survival: 1
[2]; day 12, 5-FU (50)
  Cumulative Survival: 0.15
[2]; day 13, 5-FU (30)
  Cumulative Survival: 1
[2]; day 13, 5-FU (50)
  Cumulative Survival: 0.15
[2]; day 14, 5-FU (30)
  Cumulative Survival: 1
[2]; day 14, 5-FU (50)
  Cumulative Survival: 0.15
[2]; day 15, 5-FU (30)
  Cumulative Survival: 0.85
[2]; day 15, 5-FU (50)
  Cumulative Survival: 0.15
[2]; day 16, 5-FU (30)
  Cumulative Survival: 0.55
[2]; day 16, 5-FU (50)
  Cumulative Survival: 0.15
[2]; day 17, 5-FU (30)
  Cumulative Survival: 0.15
[2]; day 17, 5-FU (50)
  Cumulative Survival: 0.15
[2]; day 18, 5-FU (30)
  Cumulative Survival: 0
[2]; day 18, 5-FU (50)
  Cumulative Survival: 0.15
[2]; day 19, 5-FU (50)
  Cumulative Survival: 0.15
[2]; day 20, 5-FU (50)
  Cumulative Survival: 0.15
[2]; day 21, 5-FU (50)
  Cumulative Survival: 0.15
[2]; day 22, 5-FU (50)
  Cumulative Survival: 0.15
[2]; day 23, 5-FU (50)
  Cumulative Survival: 0.15
[2]; day 24, 5-FU (50)
  Cumulative Survival: 0

## Nc1nc(F)nc2c1ncn2[C@@H]1O[C@H](CO)[C@@H](O)[C@@H]1O [Fludarabin, Fludarabine]
[2]; day 8, Fludarabin (50)
  Cumulative Survival: 1.00
[2]; day 9, Fludarabin (50)
  Cumulative Survival: 0.85
[2]; day 10, Fludarabin (50)
  Cumulative Survival: 0.55
[2]; day 11, Fludarabin (50)
  Cumulative Survival: 0.40
[2]; day 12, Fludarabin (50)
  Cumulative Survival: 0.40
[2]; day 13, Fludarabin (50)
  Cumulative Survival: 0.40
[2]; day 14, Fludarabin (50)
  Cumulative Survival: 0.40
[2]; day 15, Fludarabin (50)
  Cumulative Survival: 0.30
[2]; day 16, Fludarabin (50)
  Cumulative Survival: 0.30
[2]; day 17, Fludarabin (50)
  Cumulative Survival: 0.15
[2]; day 18, Fludarabin (50)
  Cumulative Survival: 0.15
[2]; day 19, Fludarabin (50)
  Cumulative Survival: 0

## O=C1[O][Pt]2([NH][C@@H]3CCCC[C@H]3[NH]2)[O]C1=O [Oxali, Oxaliplatin]
[2]; day 9, Oxali (5)
  Cumulative Survival: 0.45
[2]; day 10, Oxali (5)
  Cumulative Survival: 0

## O=C(/C=C/c1cccc(S(=O)(=O)Nc2ccccc2)c1)NO [PXD-101]
[1]; PXD-101 60 and 100 mg/kg q1d x5/week for 2 weeks
  tumour growth inhibition: significant tumour growth inhibition
[3]
  level of EGFR protein: apparently decreases the level of EGFR protein
Diverse tumor cell lines
  IC50: 80 to 2430 nM
[2]; [5]
  ILS % (Increased Life Span): 30.0%
  Survival time, Max: 14
  Survival time, Median survival: 13
  Survival time, Min: 12
[2]; [6]
  ILS % (Increased Life Span): 20.0%
  Survival time, Max: 14
  Survival time, Median survival: 12
  Survival time, Min: 11
[2]; day 9, PXD101 (60)
  Cumulative Survival: 1
[2]; day 9, PXD101 (100)
  Cumulative Survival: 1
[2]; day 10, PXD101 (60)
  Cumulative Survival: 1
[2]; day 10, PXD101 (100)
  Cumulative Survival: 1
[2]; day 11, PXD101 (60)
  Cumulative Survival: 1
[2]; day 11, PXD101 (100)
  Cumulative Survival: 0.85
[2]; day 12, PXD101 (60)
  Cumulative Survival: 0.70
[2]; day 12, PXD101 (100)
  Cumulative Survival: 0.43
[2]; day 13, PXD101 (60)
  Cumulative Survival: 0.15
[2]; day 13, PXD101 (100)
  Cumulative Survival: 0.43
[2]; day 14, PXD101 (60)
  Cumulative Survival: 0
[2]; day 14, PXD101 (100)
  Cumulative Survival: 0.15
[2]; day 15, PXD101 (100)
  Cumulative Survival: 0

## C#Cc1cccc(Nc2ncnc3cc(OCCOC)c(OCCOC)cc23)c1 [Tarceva ®]
Calu-3
  responsiveness of cells to Tarceva: Calu-3 (wtEGFR; moderately responsive to Tarceva ®)
HCC-4006
  responsiveness of cells to Tarceva: HCC-4006 (mutant EGFR; strongly responsive to Tarceva ®)
